This is an account of results in patent US8338465B2, “Cyclic carboxylic acid rhodanine derivatives for the treatment and prevention of tuberculosis” (priority 2006, dated 2012).

The first test has as its target T1, dihydrolipoamide acyltransferase (DlaT) (Mycobacterium tuberculosis, UniProt P9WIS7).
T1 sequence (P9WIS7 1-553): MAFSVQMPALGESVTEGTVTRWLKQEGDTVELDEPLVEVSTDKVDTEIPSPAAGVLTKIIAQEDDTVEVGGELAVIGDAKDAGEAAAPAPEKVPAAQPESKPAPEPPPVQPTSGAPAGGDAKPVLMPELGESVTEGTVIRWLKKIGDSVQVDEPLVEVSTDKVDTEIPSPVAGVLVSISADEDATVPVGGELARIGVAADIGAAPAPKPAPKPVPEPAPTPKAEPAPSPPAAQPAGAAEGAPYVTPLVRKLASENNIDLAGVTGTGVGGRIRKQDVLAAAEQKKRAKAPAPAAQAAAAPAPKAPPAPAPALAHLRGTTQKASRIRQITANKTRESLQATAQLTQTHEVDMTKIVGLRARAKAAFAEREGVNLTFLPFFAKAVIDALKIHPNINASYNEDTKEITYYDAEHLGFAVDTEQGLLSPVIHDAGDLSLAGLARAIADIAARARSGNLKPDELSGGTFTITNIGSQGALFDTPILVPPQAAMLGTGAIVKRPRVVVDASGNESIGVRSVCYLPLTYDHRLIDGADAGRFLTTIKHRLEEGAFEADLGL
Put plainly: DlaT inhibition (Dlat IC50); DTNB peroxidase assay with Lpd, DlaT and AhpD. Conditions: Dlat IC50 category. Type of test: biochemical.
The molecule `O=C(O)c1ccc(NN2C(=O)C(=Cc3ccc(-c4cccc(C(F)(F)F)c4)o3)SC2=S)cc1` [Compound D37, 4-{4-oxo-2-thioxo-5-[5-(3-trifluoromethyl-phenyl)-furan-2-ylmethylene]-thiazolidin-3-ylamino}-benzoic acid] had a half-inhibitory concentration (IC50) below 10 µM.
Same read-out and setting: the result for `CCc1ccc(-c2ccc(C=C3SC(=S)N(Nc4ccccc4C(=O)O)C3=O)o2)cc1` [Compound D38, 2-{5-[1-[5-(4-ethyl-phenyl)-furan-2-yl]-methylidene]-4-oxo-2-thioxo-thiazolidin-3-ylamino}-benzoic acid] reads below 10 µM.
On the same count and under the same terms, the result for `O=C(O)c1ccccc1NN1C(=O)C(=Cc2ccc(-c3ccc(C(F)(F)F)cc3)o2)SC1=S` [Compound D39, 2-{4-oxo-2-thioxo-5-[1-[5-(4-trifluoromethyl-phenyl)-furan-2-yl]-methylidene]-thiazolidin-3-ylamino}-benzoic acid] reads below 10 µM; that for `O=C(O)c1ccccc1NN1C(=O)C(=Cc2ccc(-c3cccc(-c4ccccc4)c3)o2)SC1=S` [Compound D40, 2-{5-[1-(5-biphenyl-3-yl-furan-2-yl)-methylidene]-4-oxo-2-thioxo-thiazolidin-3-ylamino}-benzoic acid], below 10 µM.
Same read-out and setting: in the case of `CC(=O)Nc1ccc(-c2ccc(C=C3SC(=S)N(Nc4ccccc4C(=O)O)C3=O)o2)cc1` [Compound D41, 2-{5-[5-(4-acetylamino-phenyl)-furan-2-ylmethylene]-4-oxo-2-thioxo-thiazolidin-3-ylamino}-benzoic acid] it was below 10 µM.
In the case of `CC(=O)c1ccc(-c2ccc(C=C3SC(=S)N(Nc4ccccc4C(=O)O)C3=O)o2)cc1` [Compound D42, 2-{5-[1-[5-(4-acetyl-phenyl)-furan-2-yl]-methylidene]-4-oxo-2-thioxo-thiazolidin-3-ylamino}-benzoic acid], the 50% inhibitory concentration (IC50) was below 10 µM.
Same read-out and setting: the result for `O=C(O)c1ccccc1NN1C(=O)C(=Cc2ccc(-c3ccccc3F)o2)SC1=S` [Compound D43, 2-{5-[1-[5-(2-fluoro-phenyl)-furan-2-yl]-methylidene]-4-oxo-2-thioxo-thiazolidin-3-ylamino}-benzoic acid] reads below 10 µM.
The same measure, in the same setting: the result for `O=C(O)c1ccccc1NN1C(=O)C(=Cc2ccc(-c3cccc(CO)c3)o2)SC1=S` [Compound D44, 2-{5-[1-[5-(3-hydroxymethyl-phenyl)-furan-2-yl]-methylidene]-4-oxo-2-thioxo-thiazolidin-3-ylamino}-benzoic acid] reads below 10 µM; that for `O=C(O)c1ccccc1NN1C(=O)C(=Cc2ccc(-c3ccc(F)cc3)o2)SC1=S` [Compound D45, 2-{5-[1-[5-(4-fluoro-phenyl)-furan-2-yl]-methylidene]-4-oxo-2-thioxo-thiazolidin-3-ylamino}-benzoic acid], below 10 µM.
Same read-out and setting: the result for `O=C(O)c1ccccc1NN1C(=O)C(=Cc2ccc(-c3ccc(OCc4ccccc4)cc3)o2)SC1=S` [Compound D48, 2-{5-[1-[5-(4-benzyloxy-phenyl)-furan-2-yl]-methylidene]-4-oxo-2-thioxo-thiazolidin-3-ylamino}-benzoic acid] reads 11 to 40 µM; that for `CCCCOc1ccc(-c2ccc(C=C3SC(=S)N(Nc4ccccc4C(=O)O)C3=O)o2)cc1` [Compound D49, 2-{5-[1-[5-(4-butoxy-phenyl)-furan-2-yl]-methylidene]-4-oxo-2-thioxo-thiazolidin-3-ylamino}-benzoic acid], below 10 µM; that for `CS(=O)(=O)c1ccc(-c2ccc(C=C3SC(=S)N(Nc4ccccc4C(=O)O)C3=O)o2)cc1` [Compound D50, 2-{5-[5-(4-methanesulfonyl-phenyl)-furan-2-ylmethylene]-4-oxo-2-thioxo-thiazolidin-3-ylamino}-benzoic acid], below 10 µM.
In turn, `Cc1ccccc1-c1ccc(C=C2SC(=S)N(Nc3ccccc3C(=O)O)C2=O)o1` [Compound D51, 2-{4-oxo-2-thioxo-5-[1-(5-o-tolyl-furan-2-yl)-methylidene]-thiazolidin-3-ylamino}-benzoic acid] gave an IC50 below 10 µM.
Still for that read-out and setting: the result for `CSc1cccc(-c2ccc(C=C3SC(=S)N(Nc4ccccc4C(=O)O)C3=O)o2)c1` [Compound D52, 2-{5-[1-[5-(3-methylsulfanyl-phenyl)-furan-2-yl]-methylidene]-4-oxo-2-thioxo-thiazolidin-3-ylamino}-benzoic acid] reads below 10 µM; that for `CSc1ccc(-c2ccc(C=C3SC(=S)N(Nc4ccccc4C(=O)O)C3=O)o2)cc1` [Compound D53, 2-{5-[1-[5-(4-methylsulfanyl-phenyl)-furan-2-yl]-methylidene]-4-oxo-2-thioxo-thiazolidin-3-ylamino}-benzoic acid], 11 to 40 µM; that for `CC(C)Oc1ccc(-c2ccc(C=C3SC(=S)N(Nc4ccccc4C(=O)O)C3=O)o2)cc1` [Compound D54, 2-{5-[5-(4-isopropoxy-phenyl)-furan-2-ylmethylene]-4-oxo-2-thioxo-thiazolidin-3-ylamino}-benzoic acid], below 10 µM.
In the case of `Cc1ccc(-c2cccc(C=C3SC(=S)N(Nc4ccccc4C(=O)O)C3=O)c2)cc1` [Compound D55, 2-{5-[1-(4′-methyl-biphenyl-3-yl)-methylidene]-4-oxo-2-thioxo-thiazolidin-3-ylamino}-benzoic acid], the IC50 is below 10 µM.
`Cc1ccc(-c2ccc(C=C3SC(=S)N(Nc4ccccc4C(=O)O)C3=O)cc2)cc1` [Compound D56, 2-{5-[1-(4′-methyl-biphenyl-4-yl)-methylidene]-4-oxo-2-thioxo-thiazolidin-3-ylamino}-benzoic acid] displayed an IC50 of 11 to 40 µM.
On to `O=C(O)c1ccccc1NN1C(=O)C(=Cc2ccc(-c3ccccc3-c3ccccc3)o2)SC1=S` [Compound D57, 2-{5-[1-(5-biphenyl-2-yl-furan-2-yl)-methylidene]-4-oxo-2-thioxo-thiazolidin-3-ylamino}-benzoic acid], for which the IC50 is below 10 µM.
On the same count and under the same terms, in the case of `CCc1ccccc1-c1ccc(C=C2SC(=S)N(Nc3ccccc3C(=O)O)C2=O)o1` [Compound D58, 2-{5-[1-[5-(2-ethyl-phenyl)-furan-2-yl]-methylidene]-4-oxo-2-thioxo-thiazolidin-3-ylamino}-benzoic acid] it was below 10 µM.
On the same count and under the same terms, the result for `CCCCc1ccc(-c2ccc(C=C3SC(=S)N(Nc4ccccc4C(=O)O)C3=O)o2)cc1` [Compound D59, 2-{5-[1-[5-(4-butyl-phenyl)-furan-2-yl]-methylidene]-4-oxo-2-thioxo-thiazolidin-3-ylamino}-benzoic acid] reads below 10 µM; that for `CCCc1ccc(-c2ccc(C=C3SC(=S)N(Nc4ccccc4C(=O)O)C3=O)o2)cc1` [Compound D60, 2-{5-[1-[5-(4-propyl-phenyl)-furan-2-yl]-methylidene]-4-oxo-2-thioxo-thiazolidin-3-ylamino}-benzoic acid], below 10 µM.
The molecule `O=C(O)c1cccc(N2C(=O)C(=Cc3ccc(-c4cc5ccccc5s4)o3)SC2=S)c1` [Compound I1] came in with a 50% inhibitory concentration (IC50) below 10 µM.

Staying with this test, now noted: Dlat IC50 category, Table 7, Compounds G1 to G4.
The molecule `O=C(O)c1cccc(CCN2C(=O)C(=Cc3ccc(-c4ccccc4Cl)o3)SC2=S)c1` [Compound G1] registered a 50% inhibitory concentration (IC50) below 10 µM.
Same read-out and setting: the result for `O=C(O)c1cccc(CCN2C(=O)C(=Cc3ccc(-c4cccc(C(F)(F)F)c4)o3)SC2=S)c1` [Compound G2] reads below 10 µM.
On the same count and under the same terms, the result for `O=C(O)c1cccc(CCN2C(=O)C(=Cc3ccc(-c4cc(C(F)(F)F)ccc4Cl)o3)SC2=S)c1` [Compound G3] reads below 10 µM.
In turn, `O=C(O)c1cccc(CCN2C(=O)C(=Cc3ccc(-c4cc(Cl)ccc4Cl)o3)SC2=S)c1` [Compound G4] registered an IC50 below 10 µM.

Still in this test, the particulars now being: Dlat IC50 category, Table 10, Compounds J1 to J3.
For the molecule `O=C(O)C(Cc1ccccc1)N1C(=O)C(=Cc2ccc(-c3cc4ccccc4s3)o2)SC1=S` (stereo not drawn) [Compound J3], the IC50 was below 10 µM.

The same test, now with this note: Dlat IC50 category, Table 13, Compounds M1 to M4.
`O=C(O)c1cncc(N2C(=O)C(=Cc3ccc(-c4ccccc4Cl)o3)SC2=S)c1` [Compound M1] displayed an IC50 below 10 µM.
On the same count and under the same terms, the result for `O=C(O)c1cncc(N2C(=O)C(=Cc3ccc(-c4cccc(C(F)(F)F)c4)o3)SC2=S)c1` [Compound M2] reads below 10 µM; that for `CC(C)(C)c1ccc(-c2ccc(C=C3SC(=S)N(c4cncc(C(=O)O)c4)C3=O)o2)cc1` [Compound M3], below 10 µM.
Still for that read-out and setting: the result for `N#Cc1c(F)cccc1-c1ccc(C=C2SC(=S)N(c3cncc(C(=O)O)c3)C2=O)o1` [Compound M4] reads 11 to 40 µM.

Still in this test, the particulars now being: Dlat IC50 category, Table 14, Compounds N1 to N3.
The molecule `O=C(O)c1cccc(N2C(=O)C(=Cc3ccc(Cc4ccccc4Cl)o3)SC2=S)c1` [Compound N1] showed an IC50 below 10 µM.
Still for that read-out and setting: in the case of `COc1ccc(C(=O)O)cc1N1C(=O)C(=Cc2ccc(Cc3ccccc3Cl)o2)SC1=S` [Compound N2] it was 11 to 40 µM; in that of `O=C(O)c1cc(N2C(=O)C(=Cc3ccc(Cc4ccccc4Cl)o3)SC2=S)ccc1O` [Compound N3], below 10 µM.

Staying with this test, now noted: Dlat IC50 category, Table 16, Compounds P1 to P2.
`O=C(O)C(c1ccccc1)N1C(=O)C(=Cc2cccc(-c3ccc(Cl)s3)n2)SC1=S` (stereo not drawn) [Compound P1] came in with an IC50 below 10 µM.
The same measure, in the same setting: in the case of `O=C(O)CCN1C(=O)C(=Cc2cccc(-c3ccc(Cl)s3)n2)SC1=S` [Compound P2] it was 11 to 40 µM.

The test is the same for the next values; noted with them: Dlat IC50 category, Table 17, Compounds Q1 to Q9.
`O=C(O)c1cccc(N2C(=O)C(=Cc3ccc(-c4cncnc4)o3)SC2=S)c1` [Compound Q1] displayed a half-maximal inhibitory concentration (IC50) of 11 to 40 µM.

Still in this test, the particulars now being: read-out: Dlat IC50 category.
`O=C(O)c1cccc(CCN2C(=O)C(=Cc3ccc(-c4cc5ccccc5s4)o3)SC2=S)c1` [Compound H1]: the IC50 lay within 11 to 40 µM.
